Experimental data from patent US5906981A, “Halopropargyl inclusion complexes” (Troy Corporation, priority 1996, dated 1999).

Key:
[1] = Dissolution in water: stirring in water for 1/2 hour, filtration, recovery of IPBC (Example 2); type: physicochemical; settings: 4 g IPBC in 96 g water, stirred 1/2 hour
Method: Four grams of IPBC were added to 96 g of water and stirred for 1/2 hour. The resulting slurry was filtered off and the filter cake was dried and weighed. […] Approximately 27 g of the lyophilized inclusion complex prepared in Example 1 was added to 73 g water and the mixture was stirred for 1/2 hour. […] Use of the inclusion complex in this manner thus affords approximately 4% solution of IPBC in water, which is a solubility enhancement of approximately 250-300 times.

[2] = Thermal decomposition point; type: physicochemical; settings: pure IPBC or IPBC in the inclusion complex
Method: The melting point of pure IPBC is 66-67° C. and its decomposition occurs at about 150-155° C., leading to formation of highly colored by-products. The decomposition point of IPBC in the inclusion complex of Examples 1 and 3 was determined to be about 222-225° C.

With `CCCCNC(=O)OCC#CI` [IPBC, 3-iodo-2-propynyl butylcarbamate] the “IPBC recovered in the filter cake” value [1] was “Approximately 98%” and the decomposition point [2] was 150-155 °C.
